From ChEMBL document CHEMBL5724914, “Linking interpersonal differences in gut microbiota composition and drug biotransformation activity” (2024)

Legend:
[1] = (§1) The drug is tested on WLS-077 corresponding to human gut metagenome with ENA study accession number: PRJEB37062 and ENA sample accession number: ERS12561750 for biotransformation under anaerobic condition. The drug concentrations were measured over 9 timepoints collected between 0 and 24 hours of incubation by liquid-chromatography-coupled mass spectrometry (LC–MS); conditions: 2 µM
[2] = human gut metagenome, 24 h, 2 µM
[3] = human gut metagenome, 24 h, 2 µM; remark: listed apart in the source
[4] = human gut metagenome, 24 h, 2 µM; remark: listed apart in the source
[5] = human gut metagenome, 24 h, 2 µM; remark: listed apart in the source
[6] = human gut metagenome, 24 h, 2 µM; remark: listed apart in the source
[7] = human gut metagenome, 24 h, 2 µM; remark: listed apart in the source
[8] = as §1, with “Z-006” for “WLS-077”, “mouse” for “human”, “ERS12561806” for “ERS12561750”; conditions: 2 µM
[9] = as §1, with “Z-011” for “WLS-077”, “mouse” for “human”, “ERS12561811” for “ERS12561750”; conditions: 2 µM
[10] = as §1, with “Z-019” for “WLS-077”, “rat” for “human”, “ERS12561818” for “ERS12561750”; conditions: 2 µM
[11] = as §1, with “WLS-086” for “WLS-077”, “ERS12561752” for “ERS12561750”; conditions: 2 µM
[12] = human gut metagenome, 24 h, 2 µM; remark: listed apart in the source
[13] = as §1, with “Z-005” for “WLS-077”, “to” for “to human gut”, “ERS12561805” for “ERS12561750”; conditions: 2 µM
[14] = human gut metagenome, 24 h, 2 µM; remark: listed apart in the source
[15] = as §1, with “Z-007” for “WLS-077”, “rat” for “human”, “ERS12561807” for “ERS12561750”; conditions: 2 µM
[16] = as §1, with “Z-003” for “WLS-077”, “pig” for “human”, “ERS12561803” for “ERS12561750”; conditions: 2 µM
[17] = human gut metagenome, 24 h, 2 µM; remark: listed apart in the source
[18] = as §1, with “WLS-010” for “WLS-077”, “ERS12561743” for “ERS12561750”; conditions: 2 µM
[19] = human gut metagenome, 24 h, 2 µM; remark: listed apart in the source
[20] = human gut metagenome, 24 h, 2 µM; remark: listed apart in the source
Also: call rule not given here.

For `O=C1[C@H](CC[C@H](O)c2ccc(F)cc2)[C@@H](c2ccc(O)cc2)N1c1ccc(F)cc1` [EZETIMIBE], the “Bacterial Biotransformation” value [1] was “Compound metabolized”, the “Bacterial Biotransformation” value [2] was “Compound metabolized” and the “Bacterial Biotransformation” value [3] was “Compound NOT metabolized”. The “Bacterial Biotransformation” value [4] was “Compound NOT metabolized”, the “Bacterial Biotransformation” value [5] was “Compound NOT metabolized” and the “Bacterial Biotransformation” value [6] was “Compound NOT metabolized”. The “Bacterial Biotransformation” value [7] was “Compound NOT metabolized”, the “Bacterial Biotransformation” value [8] was “Compound NOT metabolized” and the “Bacterial Biotransformation” value [9] was “Compound NOT metabolized”. For the same molecule, the “Bacterial Biotransformation” value [10] was “Compound NOT metabolized”, the “Bacterial Biotransformation” value [11] was “Compound metabolized” and the “Bacterial Biotransformation” value [12] was “Compound NOT metabolized”. The “Bacterial Biotransformation” value [13] was “Compound NOT metabolized”, the “Bacterial Biotransformation” value [14] was “Compound NOT metabolized” and the “Bacterial Biotransformation” value [15] was “Compound NOT metabolized”. The “Bacterial Biotransformation” value [16] was “Compound NOT metabolized”, the “Bacterial Biotransformation” value [17] was “Compound NOT metabolized” and the “Bacterial Biotransformation” value [18] was “Compound metabolized”. The “Bacterial Biotransformation” value [19] was “Compound NOT metabolized” and the “Bacterial Biotransformation” value [20] was “Compound NOT metabolized”.

For `CC(C)OC(=O)C(C)(C)Oc1ccc(C(=O)c2ccc(Cl)cc2)cc1` [FENOFIBRATE], the “Bacterial Biotransformation” value [1] was “Compound NOT metabolized”, the “Bacterial Biotransformation” value [2] was “Compound metabolized” and the “Bacterial Biotransformation” value [3] was “Compound NOT metabolized”. The “Bacterial Biotransformation” value [4] was “Compound metabolized”, the “Bacterial Biotransformation” value [5] was “Compound NOT metabolized” and the “Bacterial Biotransformation” value [6] was “Compound metabolized”. For the same molecule, the “Bacterial Biotransformation” value [7] was “Compound metabolized”, the “Bacterial Biotransformation” value [8] was “Compound metabolized” and the “Bacterial Biotransformation” value [9] was “Compound metabolized”. The “Bacterial Biotransformation” value [10] was “Compound NOT metabolized”, the “Bacterial Biotransformation” value [11] was “Compound metabolized” and the “Bacterial Biotransformation” value [12] was “Compound metabolized”. The “Bacterial Biotransformation” value [13] was “Compound metabolized”, the “Bacterial Biotransformation” value [14] was “Compound metabolized” and the “Bacterial Biotransformation” value [15] was “Compound metabolized”. The “Bacterial Biotransformation” value [16] was “Compound metabolized”, the “Bacterial Biotransformation” value [17] was “Compound metabolized” and the “Bacterial Biotransformation” value [18] was “Compound NOT metabolized”. For the same molecule, the “Bacterial Biotransformation” value [19] was “Compound metabolized” and the “Bacterial Biotransformation” value [20] was “Compound metabolized”.

With `O=C1NCC2(CCN(CCc3ccccc3)CC2)O1` [FENSPIRIDE] the “Bacterial Biotransformation” value [1] was “Compound NOT metabolized”, the “Bacterial Biotransformation” value [2] was “Compound metabolized” and the “Bacterial Biotransformation” value [3] was “Compound NOT metabolized”. The “Bacterial Biotransformation” value [4] was “Compound NOT metabolized”, the “Bacterial Biotransformation” value [5] was “Compound NOT metabolized” and the “Bacterial Biotransformation” value [6] was “Compound NOT metabolized”. For the same molecule, the “Bacterial Biotransformation” value [7] was “Compound NOT metabolized”, the “Bacterial Biotransformation” value [8] was “Compound NOT metabolized” and the “Bacterial Biotransformation” value [9] was “Compound NOT metabolized”. The “Bacterial Biotransformation” value [10] was “Compound NOT metabolized”, the “Bacterial Biotransformation” value [11] was “Compound metabolized” and the “Bacterial Biotransformation” value [12] was “Compound NOT metabolized”. For the same molecule, the “Bacterial Biotransformation” value [13] was “Compound NOT metabolized”, the “Bacterial Biotransformation” value [14] was “Compound NOT metabolized” and the “Bacterial Biotransformation” value [15] was “Compound NOT metabolized”. The “Bacterial Biotransformation” value [16] was “Compound NOT metabolized”, the “Bacterial Biotransformation” value [17] was “Compound NOT metabolized” and the “Bacterial Biotransformation” value [18] was “Compound NOT metabolized”. The “Bacterial Biotransformation” value [19] was “Compound NOT metabolized” and the “Bacterial Biotransformation” value [20] was “Compound NOT metabolized”.

In the case of `OC(Cn1cncn1)(Cn1cncn1)c1ccc(F)cc1F` [FLUCONAZOLE], the “Bacterial Biotransformation” value [1] is reported as “Compound NOT metabolized”, the “Bacterial Biotransformation” value [2] is reported as “Compound metabolized” and the “Bacterial Biotransformation” value [3] is reported as “Compound NOT metabolized”. The “Bacterial Biotransformation” value [4] was “Compound NOT metabolized”, the “Bacterial Biotransformation” value [5] was “Compound NOT metabolized” and the “Bacterial Biotransformation” value [6] was “Compound metabolized”. For the same molecule, the “Bacterial Biotransformation” value [7] was “Compound NOT metabolized”, the “Bacterial Biotransformation” value [8] was “Compound NOT metabolized” and the “Bacterial Biotransformation” value [9] was “Compound NOT metabolized”. The “Bacterial Biotransformation” value [10] was “Compound NOT metabolized”, the “Bacterial Biotransformation” value [11] was “Compound metabolized” and the “Bacterial Biotransformation” value [12] was “Compound metabolized”. The “Bacterial Biotransformation” value [13] was “Compound NOT metabolized”, the “Bacterial Biotransformation” value [14] was “Compound NOT metabolized” and the “Bacterial Biotransformation” value [15] was “Compound NOT metabolized”. For the same molecule, the “Bacterial Biotransformation” value [16] was “Compound metabolized”, the “Bacterial Biotransformation” value [17] was “Compound metabolized” and the “Bacterial Biotransformation” value [18] was “Compound NOT metabolized”. For the same molecule, the “Bacterial Biotransformation” value [19] was “Compound NOT metabolized” and the “Bacterial Biotransformation” value [20] was “Compound NOT metabolized”.

In the case of `CNCCC(Oc1ccc(C(F)(F)F)cc1)c1ccccc1` (stereo not given) [FLUOXETINE], the “Bacterial Biotransformation” value [1] is reported as “Compound NOT metabolized”, the “Bacterial Biotransformation” value [2] is reported as “Compound NOT metabolized” and the “Bacterial Biotransformation” value [3] is reported as “Compound NOT metabolized”. For the same molecule, the “Bacterial Biotransformation” value [4] was “Compound NOT metabolized”, the “Bacterial Biotransformation” value [5] was “Compound NOT metabolized” and the “Bacterial Biotransformation” value [6] was “Compound NOT metabolized”. The “Bacterial Biotransformation” value [7] was “Compound NOT metabolized”, the “Bacterial Biotransformation” value [8] was “Compound NOT metabolized” and the “Bacterial Biotransformation” value [9] was “Compound NOT metabolized”. For the same molecule, the “Bacterial Biotransformation” value [10] was “Compound NOT metabolized”, the “Bacterial Biotransformation” value [11] was “Compound NOT metabolized” and the “Bacterial Biotransformation” value [12] was “Compound metabolized”. The “Bacterial Biotransformation” value [13] was “Compound NOT metabolized”, the “Bacterial Biotransformation” value [14] was “Compound NOT metabolized” and the “Bacterial Biotransformation” value [15] was “Compound NOT metabolized”. For the same molecule, the “Bacterial Biotransformation” value [16] was “Compound NOT metabolized”, the “Bacterial Biotransformation” value [17] was “Compound NOT metabolized” and the “Bacterial Biotransformation” value [18] was “Compound NOT metabolized”. For the same molecule, the “Bacterial Biotransformation” value [19] was “Compound NOT metabolized” and the “Bacterial Biotransformation” value [20] was “Compound metabolized”.

For `O=C(CCCN1CCC(O)(c2ccc(Cl)cc2)CC1)c1ccc(F)cc1` [HALOPERIDOL], the “Bacterial Biotransformation” value [1] was “Compound NOT metabolized”, the “Bacterial Biotransformation” value [2] was “Compound NOT metabolized” and the “Bacterial Biotransformation” value [3] was “Compound NOT metabolized”. For the same molecule, the “Bacterial Biotransformation” value [4] was “Compound NOT metabolized”, the “Bacterial Biotransformation” value [5] was “Compound NOT metabolized” and the “Bacterial Biotransformation” value [6] was “Compound NOT metabolized”. For the same molecule, the “Bacterial Biotransformation” value [7] was “Compound NOT metabolized”, the “Bacterial Biotransformation” value [8] was “Compound NOT metabolized” and the “Bacterial Biotransformation” value [9] was “Compound NOT metabolized”. For the same molecule, the “Bacterial Biotransformation” value [10] was “Compound NOT metabolized”, the “Bacterial Biotransformation” value [11] was “Compound metabolized” and the “Bacterial Biotransformation” value [12] was “Compound NOT metabolized”. For the same molecule, the “Bacterial Biotransformation” value [13] was “Compound NOT metabolized”, the “Bacterial Biotransformation” value [14] was “Compound NOT metabolized” and the “Bacterial Biotransformation” value [15] was “Compound NOT metabolized”. For the same molecule, the “Bacterial Biotransformation” value [16] was “Compound metabolized”, the “Bacterial Biotransformation” value [17] was “Compound NOT metabolized” and the “Bacterial Biotransformation” value [18] was “Compound NOT metabolized”. For the same molecule, the “Bacterial Biotransformation” value [19] was “Compound NOT metabolized” and the “Bacterial Biotransformation” value [20] was “Compound NOT metabolized”.

With `CCCCC1=NC2(CCCC2)C(=O)N1Cc1ccc(-c2ccccc2-c2nnn[nH]2)cc1` [IRBESARTAN] the “Bacterial Biotransformation” value [1] was “Compound metabolized”, the “Bacterial Biotransformation” value [2] was “Compound metabolized” and the “Bacterial Biotransformation” value [3] was “Compound metabolized”. For the same molecule, the “Bacterial Biotransformation” value [4] was “Compound metabolized”, the “Bacterial Biotransformation” value [5] was “Compound metabolized” and the “Bacterial Biotransformation” value [6] was “Compound metabolized”. For the same molecule, the “Bacterial Biotransformation” value [7] was “Compound metabolized”, the “Bacterial Biotransformation” value [8] was “Compound metabolized” and the “Bacterial Biotransformation” value [9] was “Compound NOT metabolized”. The “Bacterial Biotransformation” value [10] was “Compound NOT metabolized”, the “Bacterial Biotransformation” value [11] was “Compound metabolized” and the “Bacterial Biotransformation” value [12] was “Compound metabolized”. For the same molecule, the “Bacterial Biotransformation” value [13] was “Compound metabolized”, the “Bacterial Biotransformation” value [14] was “Compound NOT metabolized” and the “Bacterial Biotransformation” value [15] was “Compound NOT metabolized”. The “Bacterial Biotransformation” value [16] was “Compound metabolized”, the “Bacterial Biotransformation” value [17] was “Compound metabolized” and the “Bacterial Biotransformation” value [18] was “Compound metabolized”. For the same molecule, the “Bacterial Biotransformation” value [19] was “Compound metabolized” and the “Bacterial Biotransformation” value [20] was “Compound NOT metabolized”.

In the case of `NC(CO)(CO)CO.O=C(c1ccccc1)c1ccc2n1CCC2C(=O)O` (stereo not given) [KETOROLAC TROMETHAMINE], the “Bacterial Biotransformation” value [1] is reported as “Compound metabolized”, the “Bacterial Biotransformation” value [2] is reported as “Compound metabolized” and the “Bacterial Biotransformation” value [3] is reported as “Compound metabolized”. For the same molecule, the “Bacterial Biotransformation” value [4] was “Compound metabolized”, the “Bacterial Biotransformation” value [5] was “Compound metabolized” and the “Bacterial Biotransformation” value [6] was “Compound metabolized”. For the same molecule, the “Bacterial Biotransformation” value [7] was “Compound metabolized”, the “Bacterial Biotransformation” value [8] was “Compound NOT metabolized” and the “Bacterial Biotransformation” value [9] was “Compound NOT metabolized”. The “Bacterial Biotransformation” value [10] was “Compound NOT metabolized”, the “Bacterial Biotransformation” value [11] was “Compound metabolized” and the “Bacterial Biotransformation” value [12] was “Compound metabolized”. For the same molecule, the “Bacterial Biotransformation” value [13] was “Compound metabolized”, the “Bacterial Biotransformation” value [14] was “Compound NOT metabolized” and the “Bacterial Biotransformation” value [15] was “Compound NOT metabolized”. For the same molecule, the “Bacterial Biotransformation” value [16] was “Compound metabolized”, the “Bacterial Biotransformation” value [17] was “Compound metabolized” and the “Bacterial Biotransformation” value [18] was “Compound metabolized”. The “Bacterial Biotransformation” value [19] was “Compound metabolized” and the “Bacterial Biotransformation” value [20] was “Compound metabolized”.
